Data reported in patent US10669266B2, “Oxadiazole inhibitors of HIPK2 for treating kidney fibrosis” (ICAHN SCHOOL OF MEDICINE AT MOUNT SINAI, priority 2017, dated 2020).
Like-named read-outs stand apart in the source and are kept apart here.

How the values were obtained:
UUO mice = assay: Unilateral ureteral obstruction (UUO) mouse model of renal fibrosis; type: in vivo; conditions: for fibrosis at 14 days post-surgery (picosirius red, Masson's trichrome, Collagen I immunofluorescence): administration starting at day 7 post-surgery (day 7 to 14)
Description: (§1) Tg26 mice of FVB/N genetic background bearing a defective HIV-1 provirus lacking gag-pol have been described by Feng et al. [J Am Soc Nephrol 2009; 20: 2138-2146]. Six-week old heterozygous Tg26 mice were used in this study. Wildtype littermates were used as controls. Mice in the treatment group received test compound dissolved in DMSO and diluted in saline (5% DMSO) by oral gavage at a dose of 200 μg/kg body weight per day. Mice in the control group received the same volume of 5% DMSO/saline vehicle. The mice were treated for a total of 4 weeks and sacrificed at age of 10 weeks. The UUO model was established in male C57BL/6 mice (The Jackson Laboratory) by ligation of the left ureter as described by Jin et al. [Lab Invest, 93: 801-811, 2013]. After the operation, UUO mice were randomly divided into control group (vehicle) and treatment group. Mice were fed with test compound by oral gavage at a dose of 200 μg/kg body weight per day for 7 days.
(§2) Immunofluorescence staining was conducted on paraffin-embedded kidney sections using standard procedures. Briefly, deparaffinized sections were incubated with primary antibody against collagen I (1:50, #NB6-00-4-8, Novus) at 4° C. overnight. After being washed, sections were incubated with Alexa Fluor488-labelled second antibody (1:200, #A11034, Invitrogen) at room temperature for 1 hour in darkness. After nuclei were stained with 4′, 6-diamidino-2-phenyllindole (DAPI) slides were mounted using Aqua PolyMount (Polysciences, Inc) and images were acquired using AxioVision IIe microscope with a digital camera.
(§3) Renal fibrosis was evaluated histologically by Sirius red staining on paraffin slides of mice kidney tissues according to the manufacturer's instructions (#ab150681, Abcam). Masson's trichrome staining on paraffin slices of mice kidney tissue was performed according to manufacturer's instructions (#87019, Thermo Scientific).
The unilateral ureteral obstruction (UUO) mouse model, a commonly used model for renal fibrosis, was used to determine whether compounds of the invention can ameliorate fibrosis in vivo. […]

[1] = test system: Smad3-responsive luciferase reporter (SBE4-Luc); conditions: for suppression of Smad3 reporter activity, inhibition compared to DMSO control: absence of TGF-β1 stimulation
Description: Renilla luciferase reporter plasmid (pRL) was purchased from Promega.
Forty-eight hours post-transfection cells were treated with assigned concentrations of test compound together with or without 10 ng/ml TGF-β1 for 16 hours. Luciferase activities were measured using the Dual-Luciferase Reporter Assay kit (Promega, #E1910). Data are expressed as the ratio of firefly luciferase activity over Renilla luciferase activity. […] 48 hours after transfection, luciferase activities were measured.

Tg26 mice = assay: Tg26 (HIV-1 transgenic) mouse model of kidney disease; type: in vivo
Description: as §1, §2, §3
Tg26 mice are known to develop proteinuria starting from 4 weeks of age and the proteinuria peaks usually around 8-10 weeks of age. Tg26 mice also develop significant glomerulosclerosis and renal failure by 8-10 weeks of age. To determine whether compounds of the invention could reverse kidney injury that has been already developed, we started to treat Tg26 mice with either vehicle or Example 1 from age of 6 weeks for a total of 4 weeks, and the mice were sacrificed at age of 10 weeks.

Smad3 phosphorylation = assay: TGF-β1-induced Smad3 phosphorylation in hRTECs (western blot); type: cell-based, human; conditions: pretreatment, TGF-β1 5 ng/ml for 20 minutes
Description: HEK 293T (293T) cells (ATCC) were cultured in Dulbecco's Modified Eagle's medium (Invitrogen) containing 10% fetal bovine serum (FBS), 0.5% penicillin and streptomycin at 37° C. and 5% CO2 humidified environment. Human primary tubular cells (PromoCell GmbH, Heidelberg, Germany) were cultured in Renal Epithelial Cell Growth Medium-2 (Promocell GmbH) with supplements according to manufacturer's protocol human primary renal tubular epithelial cells with <5 passages were used for all studies. For HIV infection of hRTECs, pNL4-3:ΔG/P-EGFP, a gag/poi-deleted HIV-1 construct that contains EGFP in the gag open reading frame, and pHR-IRES-EGFP, a control EGFP construct, were used to generate the VSV-G pseudotyped virus. Cells were infected with HIV pseudotyped virus or control virus for 2 days before the treatment with test compound.
Cells were lysed in M-PER mammalian protein extraction reagent (#78501, Thermo Fisher Scientific, NY) containing protease inhibitor cocktail (#11836153001, Roche) and phosphatase inhibitors (50 mM NaF, 10 mM β-glycerophosphate, 5 mM sodium pyrophosphate, 2 mM Na3VO4). Total protein concentration was measured using the Bradford reagent (#500-0006, Bio-Rad). Proteins were separated on SDA-PAGE and transferred to nitrocellulose membrane. […]

[2] = test system: lactate dehydrogenase (LDH) level in cell culture medium; assay: LDH cytotoxicity assay of cell culture medium; type: cell-based; conditions: up to 30 μM, 16 hours of incubation
Description: Medium LDH measurement was performed using LDH Cytotoxicity Assay Kit (ThermoFisher scientific, NY) according to manufacturer's instructions.
In order to rule out the possibility that the reduction in Smad3 activity is due to the cytotoxicity of increasing concentration of compound, lactate dehydrogenase (LDH) level in cell culture medium was examined. LDH is released by damaged cells.

[3] = Tg26 mice treated from age of 6 weeks for 4 weeks, vs vehicle
[4] = Tg26 mice, post-treatment (week 4), 200 μg/kg/day oral gavage
[5] = Tg26 mice, pre-treatment (week 0)
[6] = Wildtype mice, post-treatment (week 4), 200 μg/kg/day oral gavage
[7] = Wildtype mice, pre-treatment (week 0)

Which results are given for `COc1ccc2cc(-c3nc(-c4ccc(Br)cc4)no3)cnc2c1` [Example 1, 3-(4-Bromophenyl)-5-(7-methoxyquinolin-3-yl)-1,2,4-oxadiazole]?
expression of Wnt/β-catenin pathway genes (Axin2, c-myc, Twist), real-time PCR (UUO mice; UUO kidneys, treatment day 7 to 14): significantly diminished; Smad3 phosphorylation and α-SMA expression in UUO kidneys (western blot) (UUO mice; UUO mice, 200 μg/kg/day oral gavage, day of surgery to 7 days post-surgery): significantly decreased; renal fibrosis (picrosirius red, Masson's trichrome, Collagen I immunofluorescence) (UUO mice; UUO mice, 200 μg/kg/day oral gavage, day of surgery to 7 days post-surgery, vs vehicle): significantly attenuated renal fibrosis; fibrosis at 14 days post-surgery (picosirius red, Masson's trichrome, Collagen I immunofluorescence) (UUO mice; UUO mice, listed as BT173): significant attenuation of fibrosis; fibrosis at 14 days post-surgery (picosirius red, Masson's trichrome, Collagen I immunofluorescence) (UUO mice; UUO mice, listed as Example I): showed efficacy in amelioration of fibrosis progression; p53 activation (phosphorylation) in UUO kidneys (UUO mice; UUO mice, treatment day 7 to 14): no effects; p-Smad3 and α-SMA in kidney cortex (western blot) (UUO mice; UUO mice, treatment day 7 to 14, vs vehicle-treated UUO kidneys): marked reduction; Luciferase Activity (Relative to DMSO control) −TGFβ [1]: 0.197; suppression of Smad3 reporter activity, inhibition compared to DMSO control ([1]; 3.3 μm): ~40%; suppression of Smad3 reporter activity, inhibition compared to DMSO control ([1]; 10 μm): ~70%; SBE4-luciferase activity, inhibition compared to TGFβ1-treated only control ([1]; presence of TGF-β1, first of three tested doses): ~40%; SBE4-luciferase activity, inhibition compared to TGFβ1-treated only control ([1]; presence of TGF-β1, second of three tested doses): ~60%; SBE4-luciferase activity, inhibition compared to TGFβ1-treated only control ([1]; presence of TGF-β1, third of three tested doses): ~75%; Smad3 phosphorylation and α-SMA expression (Tg26 mice; Tg26 mice): significantly reduced; kidney injury and renal fibrosis (picrosirius red, Masson's trichrome, Collagen I immunofluorescence) (Tg26 mice; Tg26 mice): attenuated kidney injury and renal fibrosis; proteinuria (Tg26 mice; [3]): significantly reduced proteinuria; renal function (Tg26 mice; [3]): improved renal function; BUN (Tg26 mice; [4]): 22.404 ± 4.678 mg/dL; Urinary Albumin:Creatinine Ratio (Tg26 mice; [4]): 19.917 ± 5.838 µg/µg; BUN (Tg26 mice; [5]): 23.799 ± 1.990 mg/dL; Urinary Albumin:Creatinine Ratio (Tg26 mice; [5]): 23.321 ± 12.339 µg/µg; BUN (Tg26 mice; [6]): 18.875 ± 3.485 mg/dL; Urinary Albumin:Creatinine Ratio (Tg26 mice; [6]): 0.036 ± 0.008 µg/µg; BUN (Tg26 mice; [7]): 21.091 ± 3.009 mg/dL; Urinary Albumin:Creatinine Ratio (Tg26 mice; [7]): 0.033 ± 0.007 µg/µg; Smad3 phosphorylation induced by TGF-β1 (Smad3 phosphorylation): gradually inhibited; LDH level in the culture medium [2]: no significant increase
